Test results from patent publication EP1189688B1, “W/O TYPE EMULSIONS WITH A HIGH WATER CONTENT CONTAINING MEDIUM POLAR LIPIDS” (Beiersdorf AG, priority 1999, dated 2000).

Assay: Interfacial tension of the lipid against water (measure of polarity)
Assay type: physicochemical
Conditions: lower value = more polar oil
Source text: Öle und Fette unterscheiden sich unter anderem in ihrer Polarität, welche schwierig zu definieren ist. Es wurde bereits vorgeschlagen, die Grenzflächenspannung gegenüber Wasser als Maß für den Polaritätsindex eines Öls bzw. einer Ölphase anzunehmen. Dabei gilt, daß die Polarität der betreffenden Ölphase umso größer ist, je niedriger die Grenzflächenspannung zwischen dieser Ölphase und Wasser ist. Erfindungsgemäß wird die Grenzflächenspannung als ein mögliches Maß für die Polarität einer gegebenen Ölkomponente angesehen.
Die Grenzflächenspannung ist diejenige Kraft, die an einer gedachten, in der Grenzfläche zwischen zwei Phasen befindlichen Linie der Länge von einem Meter wirkt. Die physikalische Einheit für diese Grenzflächenspannung errechnet sich klassisch nach der Beziehung Kraft/Länge und wird gewöhnlich in mN/m (Millinewton geteilt durch Meter) wiedergegeben. Sie hat positives Vorzeichen, wenn sie das Bestreben hat, die Grenzfläche zu verkleinern. Im umgekehrten Falle hat sie negatives Vorzeichen.
Die nachfolgende Tabelle 1 führt mittelpolare Lipide auf, die die erfindungsgemäß sind. Die betreffenden Grenzflächenspannungen gegen Wasser sind in der letzten Spalte angegeben. Es ist jedoch auch vorteilhaft, Gemische aus höher- und niederpolaren und dergleichen zu verwenden, sofern gewährleistet ist, daß die Gesamtpolarität der Ölphase im beanspruchten Bereich liegt. Tabelle 1

Row | Grenzflächenspannungen gegen Wasser | Compound
1 | 22,1 mN/m | CCCCCCCCCCCCCC(=O)OCC(CCCCCCCC)CCCCCCCCCC (centres unmarked) [MOD, Octyldodeceyl Myristate]
2 | 28,7 mN/m | CCCCCCCCCCCCCCCCCCOC(=O)CCCCCC [Tegosoft® SH, Stearyl Heptanoate]
3 | 29,7 mN/m | Octyl lsostearate [Prisorine® 2036]
4 | 20,2 mN/m | CCCCCCCC(=O)OCC(COC(=O)CCCCCCC)OC(=O)CCCCCCC [Trivent® OCG, Tricaprylin]
5 | 21,9 mN/m | CCCCCCCCCCCCCCCCCC(=O)OC(C)C [Isopropylstearat, Isopropyl Stearate]
6 | 28,4 mN/m | CCCCCCCCCCCCCCCCCC(=O)OCCCCCCCC [Cetiol® 868, Octyl Stearate]

Row | Compound | Grenzflächenspannungen gegen Wasser
7 | CCCCCCCCCCC(CO)CCCCCCCC (centres unmarked) [Eutanol® G, Octyldodecanol] | 24,8 mN/m
8 | CCCCCCCCC(CO)CCCCCC (centres unmarked) [Isofol® 16, Hexyl Decanol] | 24,3 mN/m
